The values below come from ChEMBL document CHEMBL3856266, “Melodinine V, an antitumor bisindole alkaloid with selective cytotoxicity from Melodinus henryi” (Bioorg Med Chem Lett, 2016).

Active and inactive are the calls of the source. No cut-off for these calls is given here.

The nature of data set [1]: Cytotoxicity against human HT-29 cells assessed as reduction in cell viability after 48 hrs by MTT assay. The format is functional, cell-based. The conditions noted are these: HT-29, 48 h. (In general: Tetrazolium dyes change colour on reduction, which living cells bring about.)
A short description of data set [2]: Cytotoxicity against human PANC1 cells assessed as reduction in cell viability after 48 hrs by MTT assay. The conditions noted are these: PANC-1, 48 h. The format is functional, cell-based.
A short description of data set [3]: Cytotoxicity against human MCF7 cells assessed as reduction in cell viability after 48 hrs by MTT assay. It counts as functional, cell-based. The conditions noted are these: MCF7, 48 h.
The nature of data set [4]: Cytotoxicity against human HS27 cells assessed as reduction in cell viability up to 100 uM after 48 hrs by MTT assay. Particulars: hs27, 48 h. The format is toxicity, cell-based.
The nature of data set [5]: (§1) Antiproliferative activity against human HT-29 cells after 48 hrs by [methyl-3H]-thymidine incorporation assay. Particulars: HT-29, 48 h. It counts as functional, cell-based. (Incorporation of labelled thymidine or its analogues reports DNA synthesis.)
The subject of data set [6] is HT-29. Described as §1. It counts as functional, cell-based.
Data set [7] can be described thus: Cell cycle arrest in human HT-29 cells assessed as accumulation in G1 phase at 7.4 uM after 24 hrs by propidium iodide staining-based flow cytometry. It counts as functional.
Data set [8] is described as follows: Cell cycle arrest in human HT-29 cells assessed as accumulation in G1 phase at 9.8 uM after 24 hrs by propidium iodide staining-based flow cytometry. It counts as functional. (Flow cytometry measures light scatter and fluorescence of single cells or particles in a stream.)
Data set [9] has as its system HT-29. As to the kind of experiment: Induction of apoptosis in human HT-29 cells assessed as increase in histone associated DNA fragmentation after 48 hrs by ELISA. The format is functional, cell-based.

Broadly, the IC50 is the concentration at which inhibition is half-maximal. For the compound `CC[C@]12CCCN3CCc4c(n(c5ccccc45)[C@@H](c4ccc(O)c5c4N=C4CC[C@]6(CC)CCCN7CC[C@@]45[C@@H]76)C1)[C@@H]32`, the IC50 in data set [1] came out at 4.9 µM; in [2], 28.1 µM; in [3], 54.5 µM; in [5], 2.3 µM. Besides, the results for the Activity result (in [4]; in the data set on HT-29 [9]) were “Non-Toxic” and “Dose-dependent effect”, respectively. In the data set on HT-29 [6], the inhibition result is “Dose-dependent effect”. Further, the result in data set [7] and in data set [8] was Active.
